According to patent publication US9872912B2, “Method for treating pancreatic cancer” (CHINA MEDICAL UNIVERSITY, priority 2014, dated 2018):
“And” between values parts separate entries of the source, which are not always exact repeats. Identical values can stand only once.

What was measured:
[1] = test system: PANC-1; test: MTT cell survival rate, PANC-1; assay type: cell-based; conditions: Homo sapiens, PANC-1, 24 hours, read-out: IC50 (concentration of 50% inhibition)
Procedure: (§1) MTT (3-[4,5-dimethylthiahiazo-2-yl]-2,4-dipheny-tetrazolium bromide) was used to determine if the cell survival rate of different pancreatic cancer cell lines will be influenced when being treated with (Z)-butylidenephthalide. Human pancreatic cancer cell lines (3×10^3 cells/well), PANC-1 and PACA-2, were cultured in a 96-well micro-culture plate over night. Different concentrations of (Z)-butylidenephthalide (0 μg/ml, 10 μg/ml, 25 μg/ml, 50 μg/ml, 75 μg/ml, or 100 μg/ml) or (E)-butylidenephthalide (0 μg/ml, 50 μg/ml, 100 μg/ml, 200 μg/ml, 400 μg/ml, or 800 μg/ml), or 50 μM gemcitabine (a traditional medicine for treating pancreatic cancer, as a control group) were added into each well of the 96-well micro-culture plate along the inner wall, and cultured for 24 hours. The medium was removed, and then a medium containing 500 μg/ml MTT (200 μl) was added and cultured for 4 hours. The medium was removed, and then 200 μl of DMSO was added into the plate. The absorbance of the sample in each well was measured by a spectrophotometer at 570 nm wavelength. The data was calculated to determine the survival rate and IC50 (concentration of 50% inhibition) of each pancreatic cancer cell line treated with (Z)-butylidenephthalide and (E)-butylidenephthalide. The results are shown in FIG. 1A ((E)-butylidenephthalide) and FIG. 1B ((Z)-butylidenephthalide).

[2] = test system: PACA-2; test: MTT cell survival rate, PACA-2; assay type: cell-based; conditions: Homo sapiens, PACA-2, 24 hours, read-out: IC50 (concentration of 50% inhibition)
Procedure: as §1

[3] = test system: gene expression levels of NOR-1, Nurr1, and Nur77 in PANC-1; test: RT-PCR of apoptosis-related gene expression, PANC-1; assay type: cell-based, Human
Procedure: (§2) In this experiment, pancreatic cancer cell lines, PANC-1 and PACA-2, were treated with 100 μg/ml Z-BP for 0, 1, 3, 6, or 24 hours, and then, analyzed by reverse transcriptase-polymerase chain reaction (RT-PCR) (FIG. 6A) to analyze the effects of Z-BP on the gene expression levels of NOR-1, Nurr1, and Nur77 in the pancreatic cancer cell line. In addition, pancreatic cancer cell lines, PANC-1 and PACA-2, were treated with different concentrations of Z-BP for 3 hours, and then, analyzed by RT-PCR (FIG. 6B). The Glyceraldehyde 3-phosphate dehydrogenase (GAPDH) was used as the control group.

[4] = test system: Nurr1 RNA in PACA-2; test: Micro RNA interference test, RT-PCR of Nurr1 RNA in PACA-2; assay type: cell-based, human; conditions: PACA-2, 133 μM Z-BP
Procedure: The RNA expression of Nurr1 in the human pancreatic cancer cell line, PACA-2, was inhibited by Micro RNA interference technology. The cells were treated with 133 μM Z-BP. Then, the cells were analyzed by RT-PCR to detect the changes in the expression of Nurr1 RNA in the cells. As the results shown in FIG. 7A, when PACA-2 cells were treated with 50 nM Nurr1 micro RNA, about 50% of the Nurr1 induced by Z-BP was inhibited.

[5] = test system: Nur77 gene pathway-related and apoptosis-related proteins in PACA-2; test: Western blotting of Nur77 pathway-related and apoptosis-related proteins in PACA-2; assay type: cell-based, Human
Procedure: Human pancreatic cancer cell line, PACA-2, […], and then the expression levels of the Nur77 gene involved pathway-related proteins were analyzed by Western blotting, including Pan-PKC, AKT, ERK, and JNK (FIG. 8A). In addition, the expression levels of apoptosis-related proteins were also analyzed, including poly(ADP-ribose) polymerase (PARP), cleaved poly(ADP-ribose) polymerase (cPARP), caspase-3 (FIG. 8B). β-actin was used as the control group.

[6] = test system: PACA-2; test: Micro RNA interference test, cellular survival rate of PACA-2; assay type: cell-based, human; conditions: PACA-2, 133 μM Z-BP
Procedure: Human pancreatic cancer cell lines, PACA-2, was cultured with p(CPP-SA)-Z-BP comprising 0 w % (as a control group), 17.5 w %, or 25 w % (Z)-butylidenephthalide, respectively, for 24 hours, and then the tumor cell morphology and cellular survival rate were observed.
In addition, the human pancreatic cancer cell line, PACA-2, was treated with 10 nM or 50 nM of Nurr1 micro RNA, and then treated with 133 μM Z-BP. Then, the cellular survival rate was observed using the same method as described in Example 4.

[7] = test system: gene expression levels of NOR-1, Nurr1, and Nur77 in PACA-2; test: RT-PCR of apoptosis-related gene expression, PACA-2; assay type: cell-based, Human
Procedure: as §2

[8] = PANC-1, 100 μg/ml Z-BP, 1 to 3 hours
[9] = PACA-2, Z-BP for 24 hours or 48 hours
[10] = PACA-2, 100 μg/ml Z-BP, 1 to 3 hours

SMILES	IC50 [1]	IC50 [2]	mRNA expression level of NOR-1 [3, 8]	mRNA expression level of Nurr1 [3, 8]	mRNA expression level of Nurr1 ([3]; PANC-1, different concentrations of Z-BP, 3 hours)	expression of Nurr1 [4]	expression level of phospho-AKT (Pi-AKT) ([5]; PACA-2, Z-BP for 180 minutes)	expression level of phospho-JNK (Pi-SAPK/JNK) ([5]; PACA-2, Z-BP for 180 minutes)	expression level of PARP [5, 9]	expression level of cPARP [5, 9]	expression level of caspase-3 [5, 9]	cellular survival rate of PACA-2 cells [6]	mRNA expression level of NOR-1 [7, 10]	mRNA expression level of Nurr1 [7, 10]	mRNA expression level of Nurr1 ([7]; PACA-2, different concentrations of Z-BP, 3 hours)
CCC/C=C1/OC(=O)c2ccccc21 [(E)-butylidenephthalide, reference compound]	~257 µg/mL and ~1.37 mM	~162 µg/mL and ~864 µM	–	–	–	–	–	–	–	–	–	–	–	–	–
CCC/C=C1\OC(=O)c2ccccc21 [(Z)-butylidenephthalide]	~45 µg/mL and ~234 µM	~25 µg/mL and ~133 µM	increased	increased	increased	increase the expression of Nurr1	increased	increased	increased	increased	increased	reduce the cellular survival rate	increased	increased	increased
